In patent US11643429B2, “Compounds and methods for the treatment of ocular disorders” (Azura Ophthalmics Ltd., priority 2019, dated 2023):

Tests used:
[1] = Rabbit Cornea Homogenate Stability Assay (Rabbit Cornea Esterase Assay); type: in vitro ADME; details: New Zealand White, 37° C., half-life of parent conjugate
Description: Determining Rabbit Cornea Homogenate stability of the test compounds was performed using HPLC-MS. The assay was performed at two concentrations of Rabbit Cornea Homogenate (0.15 mg/ml and 0.45 mg/ml total protein) so that any hydrolysis observed could be assigned as esterase dependent or not.
Five rabbit corneas (e.g. New Zealand Whites) of approx. 50 mg each were sliced and scraped with a scalpel and tweezers until reduced to small (1-3 mm), thin pieces. These were transferred into a tared vial and accurately weighed, then diluted with 10 volumes aqueous PBS pH7.4
Sample was cooled intermittently on ice and shear homogenized for 3 minutes, then centrifuged for 3 min at 3000 rpm. The supernatant was pipetted off into a vial, and total protein concentration determined at 280 nm. Sample was stored at −78° C.
10 mM Compound stocks were diluted to 100 μM in a 96 deep-well plate: 10 μl of 10 mM Compound stock was added to 990 μl 50 mM HEPES, pH7.5 buffer.
Compounds were further diluted to 10 μM: 100 μl of 100 μM compound was added to 900 μl 50 mM HEPES, pH7.5 buffer.
Esterase homogenate was diluted to 300 ng/μl and 900 ng/μl
A heater shaker was set to 37° C. Into a suitable 96 well plate (Run Plate), 75 μl of 300 or 900 ng/μl esterase homogenate was pipetted into each of the required wells (2 min, 5 min, 10 min, 20 min and 45 min). The plate was sealed and then warmed at 37° C. for 5 min. Another 96 well PCR plate was put on ice (Kill Plate). To this was added 100 μl of MeCN to each well, labelled 0 min 2 min, 5 min, 10 min, 20 min and 45 min. The plate was covered to minimise evaporation. For the T=0 sample only, to the 100 μl cold MeCN stop solution was added 50 μl of 300 or 900 ng/μl esterase homogenate followed by 50 μl of 10 μM compound solution For the remaining timepoints, 75 μl of 10 μM compound solution was added to the Run Plate starting from T=45 min row and ending with T=2 min row. At the appropriate time point, 100 μl of the assay mixture was added to the matching kill plate well containing 100 μl of cold MeCN. Samples were analysed as soon as practicable by LCMS (Waters Xevo TQ-S or Micromass Ultima). Parent conjugate and parent concentrations were determined against appropriate standard response curves and the half-life (T1/2) of the parent conjugate was calculated using the peak area of the parent conjugate at each time point in the linear region of the log-linear plot.

[2] = Aqueous Hydrolysis Stability Assay; type: physicochemical; details: 50 mM HEPES buffer pH 7.5; HEPES pH 7.5, room temperature; read-out: T1/2 Aq Stability
Description: Determination of aqueous stability of the test compounds was performed using HIPLC-MS. A test compound 10 mM stock solution was prepared in DMSO. 10 μl of the DMSO stock solution was dissolved in 990 μl of 50 mM HEPES pH 7.5 buffer or 1:1 (v/v) of Acetonitrile:Water to make a 100 μM solution. Final DMSO concentration was 1%. The solution was kept at room temperature and injected without delay into the LCMS (Waters Xevo TQ-S or Micromass Ultima). Additional injections were performed at appropriate time points. Half-life (T1/2) of the parent conjugate was calculated using the peak area of the parent conjugate at each time point in the linear region of the log-linear plot.

[3] = Aqueous Hydrolysis Stability Assay; type: physicochemical; details: New Zealand White, rabbit, rabbit cornea homogenate (esterase assay) in HEPES buffer, pH 7.5; ND, estimated from esterase assay; read-out: T1/2 Aq Stability
[4] = pH 7.5, Rabbit Cornea Homogenate 0.15 mg/ml total protein, read-out: T1/2 Esterase (min) (0.15 mg/ml Homogenate)
[5] = pH 7.5, Rabbit Cornea Homogenate 0.45 mg/ml total protein, read-out: T1/2 Esterase (min) (0.45 mg/ml Homogenate)

| SMILES | half-life at 5 µM [1, 4] [min] | half-life at 5 µM [1, 5] [min] | half-life at 100 µM [2] [min] | half-life at 5 µM [3] [min] |
| --- | --- | --- | --- | --- |
| CC[C@H]1OC(=O)[C@H](C)[C@@H](O[C@H]2C[C@@](C)(OC)[C@@H](O)[C@H](C)O2)[C@H](C)[C@@H](O[C@@H]2O[C@H](C)C[C@H](N(C)C)[C@H]2OC(=O)Cc2ccc(OC)cc2)[C@](C)(O)C[C@@H](C)CN(C)[C@H](C)[C@@H](O)[C@]1(C)O [Compound 3, (2S,3R,4S,6R)-4-(Dimethylamino)-2-(((2R,3S,4R,5R,8R,10R,11R,12S,13S,14R)-2-ethyl-3,4,10-trihydroxy-13-(((2R,4R,5S,6S)-5-hydroxy-4-methoxy-4,6-dimethyltetrahydro-2H-pyran-2-yl)oxy)-3,5,6,8,10,12,14-heptamethyl-15-oxo-1-oxa-6-azacyclopentadecan-1-yl)oxy)-6-methyltetrahydro-2H-pyran-3-yl 2-(4-methoxyphenyl)acetate] | 35 | 39 | 42 |  |
| CC[C@H]1OC(=O)[C@H](C)[C@@H](O[C@H]2C[C@@](C)(OC)[C@@H](O)[C@H](C)O2)[C@H](C)[C@@H](O[C@@H]2O[C@H](C)C[C@H](N(C)C)[C@H]2OC(=O)CCOCCOCCOCCOCCO)[C@](C)(O)C[C@@H](C)CN(C)[C@H](C)[C@@H](O)[C@]1(C)O [Compound 5, (2S,3R,4S,6R)-4-(Dimethylamino)-2-(((2R,3S,4R,5R,8R,10R,11R,12S,13S,14R)-2-ethyl-3,4,10-trihydroxy-13-(((2R,4R,5S,6S)-5-hydroxy-4-methoxy-4,6-dimethyltetrahydro-2H-pyran-2-yl)oxy)-3,5,6,8,10,12,14-heptamethyl-15-oxo-1-oxa-6-azacyclopentadecan-11-yl)oxy)-6-methyltetrahydro-2H-pyran-3-yl 1-hydroxy-3,6,9,12-tetraoxapentadecan-15-oate] | 21 | 24 | 72 |  |
| CC[C@H]1OC(=O)[C@H](C)[C@@H](O[C@H]2C[C@@](C)(OC)[C@@H](O)[C@H](C)O2)[C@H](C)[C@@H](O[C@@H]2O[C@H](C)C[C@H](N(C)C)[C@H]2OC(=O)O[C@H](C)C(=O)OC)[C@](C)(O)C[C@@H](C)CN(C)[C@H](C)[C@@H](O)[C@]1(C)O [Compound 10, Methyl (R)-2-(((((2S,3R,4S,6R)-4-(dimethylamino)-2-(((2R,3S,4R,5R,8R,10R,11R,12S,13S,14R)-2-ethyl-3,4,10-trihydroxy-13-(((2R,4R,5S,6S)-5-hydroxy-4-methoxy-4,6-dimethyltetrahydro-2H-pyran-2-yl)oxy)-3,5,6,8,10,12,14-heptamethyl-15-oxo-1-oxa-6-azacyclopentadecan-11-yl)oxy)-6-methyltetrahydro-2H-pyran-3-yl)oxy)carbonyl)oxy)propanoate] | 53 | 49 |  | ~51 |
| CC[C@H]1OC(=O)[C@H](C)[C@@H](O[C@H]2C[C@@](C)(OC)[C@@H](O)[C@H](C)O2)[C@H](C)[C@@H](O[C@@H]2O[C@H](C)C[C@H](N(C)C)[C@H]2O)[C@](C)(O)C[C@@H](C)CN(C)[C@H](C)[C@@H](OC(=O)CO)[C@]1(C)O [Compound 11, (2R,3R,4R,5R,8R,10R,11R,12S,13S,14R)-11-(((2S,3R,4S,6R)-4-(Dimethylamino)-3-hydroxy-6-methyltetrahydro-2H-pyran-2-yl)oxy)-2-ethyl-3,10-dihydroxy-3-(((2R,4R,5S,6S)-5-hydroxy-4-methoxy-4,6-dimethyltetrahydro-2H-pyran-2-yl)oxy)-3,5,6,8,10,12,14-heptamethyl-15-oxo-1-oxa-6-azacyclopentadecan-4-yl 2-hydroxyacetate] | > 120 | > 120 | > 120 |  |
| CC[C@H]1OC(=O)[C@H](C)[C@@H](O[C@H]2C[C@@](C)(OC)[C@@H](O)[C@H](C)O2)[C@H](C)[C@@H](O[C@@H]2O[C@H](C)C[C@H](N(C)C)[C@H]2O)[C@](C)(O)C[C@@H](C)CN(C)[C@H](C)[C@@H](OC(C)=O)[C@]1(C)O [Compound 12, (2R,3R,4R,5R,8R,10R,11R,12S,13S,14R)-11-(((2S,3R,4S,6R)-4-(Dimethylamino)-3-hydroxy-6-methyltetrahydro-2H-pyran-2-yl)oxy)-2-ethyl-3,10-dihydroxy-13-(((2R,4R,5S,6S)-5-hydroxy-4-methoxy-4,6-dimethyltetrahydro-2H-pyran-2-yl)oxy)-3,5,6,8,10,12,14-heptamethyl-15-oxo-1-oxa-6-azacyclopentadecan-4-yl acetate] | > 120 | > 120 | > 120 |  |
| CC[C@H]1OC(=O)[C@H](C)[C@@H](O[C@H]2C[C@@](C)(OC)[C@@H](OC(C)=O)[C@H](C)O2)[C@H](C)[C@@H](O[C@@H]2O[C@H](C)C[C@H](N(C)C)[C@H]2O)[C@](C)(O)C[C@@H](C)CN(C)[C@H](C)[C@@H](O)[C@]1(C)O [Compound 13, (2S,3S,4R,6R)-6-(((2R,3S,4R,5R,8R,10R,11R,12S,13S,14R)-11-(((2S,3R,4S,6R)-4-(Dimethylamino)-3-hydroxy-6-methyltetrahydro-2H-pyran-2-yl)oxy)-2-ethyl-3,4,10-trihydroxy-3,5,6,8,10,12,14-heptamethyl-15-oxo-1-oxa-6-azacyclopentadecan-13-yl)oxy)-4-methoxy-2,4-dimethyltetrahydro-2H-pyran-3-yl acetate] | > 120 | > 120 | > 120 |  |
| CC[C@H]1OC(=O)[C@H](C)[C@@H](O[C@H]2C[C@@](C)(OC)[C@@H](O)[C@H](C)O2)[C@H](C)[C@@H](O[C@@H]2O[C@H](C)C[C@H](N(C)C)[C@H]2OC(=O)SC[C@H](NC(C)=O)C(=O)OC)[C@](C)(O)C[C@@H](C)CN(C)[C@H](C)[C@@H](O)[C@]1(C)O [Compound 14, Methyl N-acetyl-S-((((2S,3R,4S,6R)-4-(dimethylamino)-2-(((2R,3S,4R,5R,8R,10R,11R,12S,13S,14R)-2-ethyl-3,4,10-trihydroxy-13-(((2R,4R,5S,6S)-5-hydroxy-4-methoxy-4,6-dimethyltetrahydro-2H-pyran-2-yl)oxy)-3,5,6,8,10,12,14-heptamethyl-15-oxo-1-oxa-6-azacyclopentadecan-11-yl)oxy)-6-methyltetrahydro-2H-pyran-3-yl)oxy)carbonyl)-L-cysteinate] | > 120 | > 120 | > 120 |  |
